Experimental data from patent US20130085064A1, “PESTICIDAL MIXTURES CONTAINING ISOXAZOLINE DERIVATIVES AND INSECTICIDE OR NEMATOICIDAL BIOLOGICAL AGENT” (priority 2010, published 2013).
“And” between values parts separate entries of the source, which are not always exact repeats. Equal entries are not always repeated. Where two headings read alike, the source gives them in different places.

Key:
Assay type in all cases: in vivo
[1] = system: Tetranychus urticae (two spotted spider mite); assay: Tetranychus urticae contact/feeding activity on bean plants, adult mortality
Text: (§1) The action to be expected E for a given active ingredient combination obeys the so-called COLBY formula and can be calculated as follows (COLBY, S.R. “Calculating synergistic and antagonistic responses of herbicide combination”. Weeds, Vol. 15, pages 20-22; 1967):
(§2) ppm=milligrams of active ingredient (=a.i.) per liter of spray mixture X=% action by active ingredient A) using p ppm of active ingredient Y=% action by active ingredient B) using q ppm of active ingredient.
(§3) According to COLBY, the expected (additive) action of active ingredients A)+B) using p+q ppm of active ingredient is
(§4) If the action actually observed (O) is greater than the expected action (E), then the action of the combination is super-additive, i.e. there is a synergistic effect. In mathematical terms the synergism factor SF corresponds to O/E. In the agricultural practice an SF of ≧1.2 indicates significant improvement over the purely complementary addition of activities (expected activity), while an SF of ≦0.9 in the practical application routine signals a loss of activity compared to the expected activity.
Tetranychus Urticae (Two Spotted Spider Mite)
(Contact/Feeding Activity)
Bean plants are infested with mite populations of mixed ages. 1 day after infestation, plants are treated in a spray chamber with diluted test solutions. 1 and 8 days later, samples are checked for adult mortality. 2 replicates per treatment were evaluated.

[2] = system: Spodoptera littoralis (Egyptian cotton leaf worm); assay: Spodoptera littoralis larvicide L1, feeding/contact, cotton leaf discs; conditions: single compound
Text: as §1, §2, §3, §4
Spodoptera Littoralis (Egyptian Cotton Leaf Worm)
(Larvicide L1, Feeding/Contact)
Cotton leaf discs are placed on agar in Petri dishes and sprayed with test solutions in an application chamber. After drying, the leaf discs are infested with 10 L1 larvae. The samples are checked for mortality 5 days after treatment. 3 replicates per treatment were evaluated. (1 PPM=1 mg l^−1)

[3] = system: Heliothis virescens (tobacco budworm); assay: Heliothis virescens ovo-larvicide, feeding/contact, eggs on filter paper in Petri dishes; conditions: single compound, 7 days
Text: as §1, §2, §3, §4
Heliothis Virescens (Tobacco Budworm):
(Ovo-Larvicide, Feeding/Contact)
30-35 fresh eggs (0-24 h old), deposited on filter paper, are placed in Petri dishes on top of a layer of artificial diet and 0.8 ml of diluted test solutions are pipetted onto them. After an incubation period of 7 days, samples are checked for egg and larval mortality. 3 replicates per treatment were evaluated.

[4] = system: Heliothis virescens (tobacco budworm); assay: Heliothis virescens eggs in 24-well microtiter plate on artificial diet, larval mortality; conditions: Heliothis virescens, 96 h, read-out: AVERAGE DEAD IN %
Text: as §1, §2, §3, §4
Heliothis Virescens (Tobacco Budworm)
Eggs (0-24 h old) are placed in 24-well microtiter plate on artificial diet and treated with test solutions (DMSO) by pipetting. After an incubation period of 4 days, samples are checked for larval mortality.

[5] = system: Tetranychus urticae (two-spotted spider mite); assay: Tetranychus urticae bean leaf discs in 24-well microtiter plates, mixed population mortality; conditions: 8 days
Text: as §1, §2, §3, §4
Tetranychus Urticae (Two-Spotted Spider Mite)
Bean leaf discs on agar in 24-well microtiter plates are sprayed with test solutions (DMSO). After drying, the leaf discs are infested with mite populations of mixed ages. 8 days later, discs are checked for mixed population mortality.

CCOC(=O)OC1=C(c2cc(C)ccc2C)C(=O)N[C@]12CC[C@@H](OC)CC2 [Spirotetramat, spirotetramat]
AVERAGE DEAD IN % AFTER 8 DAYS ([1]; 0.1 ppm alone): 10%
AVERAGE DEAD IN % AFTER 8 DAYS ([1]; 0.2 ppm alone): 33%
AVERAGE DEAD IN % AFTER 8 DAYS ([1]; 0.4 ppm alone): 38%
AVERAGE DEAD IN % AFTER 1 DAY ([1]; Spirotetramat alone 0.1 ppm AI): 13%
AVERAGE DEAD IN % AFTER 1 DAY ([1]; Spirotetramat alone 0.2 ppm AI): 18%
AVERAGE DEAD IN % AFTER 1 DAY ([1]; Spirotetramat alone 0.4 ppm AI): 23%
AVERAGE DEAD IN % AFTER 5 DAYS ([2]; 25 ppm AI): 23%
AVERAGE DEAD IN % AFTER 5 DAYS ([2]; 50 PPM AI): 17% and 33%
AVERAGE DEAD IN % AFTER 5 DAYS ([2]; 50 ppm AI): 33%
AVERAGE DEAD IN % AFTER 5 DAYS ([2]; 100 PPM AI): 43% and 67%
AVERAGE DEAD IN % AFTER 5 DAYS ([2]; 100 ppm AI): 67%
AVERAGE DEAD IN % (EGGS) ([3]; 100 ppm AI): 0%
AVERAGE DEAD IN % (LARVAE) ([3]; 100 ppm AI): 78%
AVERAGE DEAD IN % (EGGS) ([3]; 200 ppm AI): 67% and 65%
AVERAGE DEAD IN % (LARVAE) ([3]; 200 ppm AI): 100% and 98%
pest or weed control at 6.25 ppm ([4]; Spirotetramat alone 6.25 ppm AI): 0%
pest or weed control at 12.5 ppm ([4]; Spirotetramat alone 12.5 ppm AI): 0%
pest or weed control at 25 ppm ([4]; Spirotetramat alone 25 ppm AI): 0%
pest or weed control at 50 ppm ([4]; Spirotetramat alone 50 ppm AI): 0%
pest or weed control at 100 ppm ([4]; Spirotetramat alone 100 ppm AI): 0%
pest or weed control at 200 ppm ([4]; Spirotetramat alone 200 ppm AI): 0%
pest or weed control at 6.25 ppm ([4]; single compound at 6.25 ppm AI): 0%
pest or weed control at 12.5 ppm ([4]; single compound at 12.5 ppm AI): 0%
pest or weed control at 25 ppm ([4]; single compound at 25 ppm AI): 0%
pest or weed control at 50 ppm ([4]; single compound at 50 ppm AI): 0%
pest or weed control at 100 ppm ([4]; single compound at 100 ppm AI): 0%
pest or weed control at 200 ppm ([4]; single compound at 200 ppm AI): 0%

CN1COCN(Cc2cnc(Cl)s2)/C1=N\[N+](=O)[O-] [Thiamethoxam, thiamethoxam]
AVERAGE DEAD IN % AFTER 8 DAYS ([1]; 200 ppm alone): 5%
AVERAGE DEAD IN % AFTER 1 DAY ([1]; Thiamethoxam alone 200 ppm AI): 0%
AVERAGE DEAD IN % AFTER 5 DAYS ([2]; 0.2 PPM AI): 7% and 10%
AVERAGE DEAD IN % AFTER 5 DAYS ([2]; 0.2 ppm AI): 10%
AVERAGE DEAD IN % AFTER 5 DAYS ([2]; 0.4 PPM AI): 13%
AVERAGE DEAD IN % AFTER 5 DAYS ([2]; 0.4 ppm AI): 13%
AVERAGE DEAD IN % AFTER 5 DAYS ([2]; 0.8 PPM AI): 30%
AVERAGE DEAD IN % AFTER 5 DAYS ([2]; 0.8 ppm AI): 30%
AVERAGE DEAD IN % (EGGS) ([3]; 100 ppm AI): 0%
AVERAGE DEAD IN % (LARVAE) ([3]; 100 ppm AI): 78%
AVERAGE DEAD IN % (EGGS) ([3]; 200 ppm AI): 0%
AVERAGE DEAD IN % (LARVAE) ([3]; 200 ppm AI): 80%
pest or weed control at 6.25 ppm ([4]; Thiamethoxam alone 6.25 ppm AI): 0%
pest or weed control at 12.5 ppm ([4]; Thiamethoxam alone 12.5 ppm AI): 0%
pest or weed control at 25 ppm ([4]; Thiamethoxam alone 25 ppm AI): 0%
pest or weed control at 50 ppm ([4]; Thiamethoxam alone 50 ppm AI): 0%
pest or weed control at 100 ppm ([4]; Thiamethoxam alone 100 ppm AI): 25%
pest or weed control at 200 ppm ([4]; Thiamethoxam alone 200 ppm AI): 65%
pest or weed control at 6.25 ppm ([4]; single compound at 6.25 ppm AI): 0%
pest or weed control at 12.5 ppm ([4]; single compound at 12.5 ppm AI): 0%
pest or weed control at 25 ppm ([4]; single compound at 25 ppm AI): 0%
pest or weed control at 50 ppm ([4]; single compound at 50 ppm AI): 0%
pest or weed control at 100 ppm ([4]; single compound at 100 ppm AI): 25%
pest or weed control at 200 ppm ([4]; single compound at 200 ppm AI): 65%
AVERAGE DEAD IN % ([5]; 25 ppm alone): 0%
AVERAGE DEAD IN % ([5]; 50 ppm alone): 13%
AVERAGE DEAD IN % ([5]; 100 ppm alone): 38%
AVERAGE DEAD IN % ([5]; 200 ppm alone): 0%
AVERAGE DEAD IN % ([5]; 400 ppm alone): 0%
AVERAGE DEAD IN % ([5]; 800 ppm alone): 13%
AVERAGE DEAD IN % ([5]; Thiamethoxam alone, 25 ppm, Table 122): 0%
AVERAGE DEAD IN % ([5]; Thiamethoxam alone, 50 ppm, Table 122): 13%
AVERAGE DEAD IN % ([5]; Thiamethoxam alone, 100 ppm, Table 122): 38%
AVERAGE DEAD IN % ([5]; Thiamethoxam alone, 200 ppm, Table 122): 0%
AVERAGE DEAD IN % ([5]; Thiamethoxam alone, 400 ppm, Table 122): 0%
AVERAGE DEAD IN % ([5]; Thiamethoxam alone, 800 ppm, Table 122): 13%
